Reference: PubChem BioAssay AID1259407 (Chemical Carcinogenesis Research Information System (CCRIS), 2018)
Calls of active or inactive are those of the source. How the calls were made is not given here.

System: CCRIS mutagenicity, Ames/micronucleus/aberration tests
Assay: CCRIS mutagenicity studies
[1] = Test System: AMES SALMONELLA TYPHIMURIUM, Strain/Indicator: TA98, Metabolic Activation: NONE, Method: PREINCUBATION
[2] = Test System: AMES SALMONELLA TYPHIMURIUM, Strain/Indicator: TA100, Metabolic Activation: NONE, Method: PREINCUBATION

## Cc1cc(N)sn1
Test System: AMES SALMONELLA TYPHIMURIUM, Strain/Indicator: TA102, Metabolic Activation: RAT, LIVER, S-9, AROCLOR 1254, HAMSTER, LIVER, S-9, AROCLOR 1254, Method: PREINCUBATION
  mutagenic call: active; positive
Test System: AMES SALMONELLA TYPHIMURIUM, Strain/Indicator: TA1538, Metabolic Activation: HAMSTER, LIVER, S-9, AROCLOR 1254 (5, 10%), Method: STANDARD PLATE
  mutagenic call: active; positive
Test System: AMES SALMONELLA TYPHIMURIUM, Strain/Indicator: TA1538, Metabolic Activation: HAMSTER, LIVER, S-9, AROCLOR 1254, Method: STANDARD PLATE
  mutagenic call: active; positive
Test System: MOUSE LYMPHOMA, Strain/Indicator: L5178Y (TK+/TK-), Metabolic Activation: NONE, Method: SUSPENSION/PLATE
  mutagenic call: active; positive. reevaluation of results: inconclusive
Test System: MOUSE LYMPHOMA, Strain/Indicator: L5178Y (TK+/TK-), Metabolic Activation: RAT, LIVER, S-9, AROCLOR 1254, Method: SUSPENSION/PLATE
  mutagenic call: active; positive. reevaluation of results: equivocal

## O[C@@H]1C=Cc2c(ccc3cc4c(ccc5ccccc54)cc23)[C@H]1O
Test System: AMES SALMONELLA TYPHIMURIUM, Strain/Indicator: TA100, Metabolic Activation: RAT, LIVER, S-9, AROCLOR 1254, Method: STANDARD PLATE
  mutagenic call: active; positive

## CC(C)N=C(NC(C)C)OCc1ccc([N+](=O)[O-])cc1
[1]
  mutagenic call: active; positive
Test System: AMES SALMONELLA TYPHIMURIUM, Strain/Indicator: TA98, Metabolic Activation: RAT, LIVER, S-9, PCB, Method: PREINCUBATION
  mutagenic call: active; positive
[2]
  mutagenic call: active; positive
Test System: AMES SALMONELLA TYPHIMURIUM, Strain/Indicator: TA100, Metabolic Activation: RAT, LIVER, S-9, PCB, Method: PREINCUBATION
  mutagenic call: active; positive

## Cc1ncc2c(n1)CCC2
Test System: AMES SALMONELLA TYPHIMURIUM, Strain/Indicator: TA98, Metabolic Activation: NONE, Method: STANDARD PLATE
  mutagenic call: inactive; negative
Test System: AMES SALMONELLA TYPHIMURIUM, Strain/Indicator: TA98, Metabolic Activation: RAT, LIVER, S-9, Method: STANDARD PLATE
  mutagenic call: inactive; negative
Test System: AMES SALMONELLA TYPHIMURIUM, Strain/Indicator: TA100, Metabolic Activation: NONE, Method: STANDARD PLATE
  mutagenic call: inactive; negative
Test System: AMES SALMONELLA TYPHIMURIUM, Strain/Indicator: TA100, Metabolic Activation: RAT, LIVER, S-9, Method: STANDARD PLATE
  mutagenic call: inactive; negative
Test System: AMES SALMONELLA TYPHIMURIUM, Strain/Indicator: TA1535, Metabolic Activation: NONE, Method: STANDARD PLATE
  mutagenic call: inactive; negative
Test System: AMES SALMONELLA TYPHIMURIUM, Strain/Indicator: TA1535, Metabolic Activation: RAT, LIVER, S-9, Method: STANDARD PLATE
  mutagenic call: inactive; negative
Test System: AMES SALMONELLA TYPHIMURIUM, Strain/Indicator: TA1537, Metabolic Activation: NONE, Method: STANDARD PLATE
  mutagenic call: inactive; negative
Test System: AMES SALMONELLA TYPHIMURIUM, Strain/Indicator: TA1537, Metabolic Activation: RAT, LIVER, S-9, Method: STANDARD PLATE
  mutagenic call: inactive; negative
Test System: AMES SALMONELLA TYPHIMURIUM, Strain/Indicator: TA1538, Metabolic Activation: NONE, Method: STANDARD PLATE
  mutagenic call: inactive; negative
Test System: AMES SALMONELLA TYPHIMURIUM, Strain/Indicator: TA1538, Metabolic Activation: RAT, LIVER, S-9, Method: STANDARD PLATE
  mutagenic call: inactive; negative

## COc1c2cc3c(cc2nc2occc12)OCO3
Test System: AMES SALMONELLA TYPHIMURIUM, Strain/Indicator: TA98, Metabolic Activation: RAT, LIVER, S-9, PHENOBARBITAL, Method: STANDARD PLATE
  mutagenic call: active; positive
Test System: AMES SALMONELLA TYPHIMURIUM, Strain/Indicator: TA100, Metabolic Activation: RAT, LIVER, S-9, PHENOBARBITAL, Method: STANDARD PLATE
  mutagenic call: active; positive

## O=C(O)/C(Cl)=C(\CCl)C(Cl)Cl
[1]
  mutagenic call: active; positive
[2]
  mutagenic call: active; positive
Test System: AMES SALMONELLA TYPHIMURIUM, Strain/Indicator: TA104, Metabolic Activation: NONE, Method: PREINCUBATION
  mutagenic call: active; positive

## Oc1cccc2[nH]c3ccccc3c12
Test System: CHINESE HAMSTER OVARY, Strain/Indicator: CHO-K1-BH4 (HGPRT)/6-THIOGUANINE, Metabolic Activation: RAT, LIVER, S-9, AROCLOR (4%)
  mutagenic call: active; positive

## CNC(N)=O
End Point: IN VITRO MICRONUCLEUS, Test System: V79 CELLS, Metabolic Activation: NONE
  mutagenic call: inactive; negative

## O=C(O)C1CCCCC1
Test System: UDS RAT GASTRIC MUCOSAL CELLS, Strain/Indicator: THY INCORP, Metabolic Activation: NONE, Method: LIQUID SCINTILLATION COUNTING
  mutagenic call: inactive; negative
